Experiments:
[1] = test system: Panc-1 cells; test: Protein expression using high content cell imaging system, and efficacy score; type: cell-based; details: for Efficacy score: cumulative over proteins of Table 7
Method: The data was generated using cell imaging system, where, cells after drug exposure were treated with protein specific antibody, followed by detection markers for the antibody. The images were generated and protein levels quantitated as an indication of drug effect.
Methodology: Panc-1 cells were seeded at a density of 5000 cells per well in 96 well plates and allowed recovery for 24 hrs in 5% CO2 incubator. After recovery, cells were challenged with Gemcitabine (IC30) for 24 hrs. After 24 hrs Gemcitabine was removed and fresh medium was added. […] The combination efficacy was identified against single treatments. At the end of the experiment Panc-1 cells were fixed and permeabilized. All the primary antibodies were added at a concentration according to manufacture protocol. After one hour incubation the cells were washed three times and labeled with secondary antibodies tagged with Dye Light 548 and nucleus was stained with Hoechest3342. After antibody labeling, cells were stained with the Cellomics whole Cell Stain Green to identify the cell's cytoplasmic area. Then all the plates were scanned in Cellomics ArrayScan® VTI HCS Reader. The results were analyzed using software that is designed for measuring the read from the imaging system.
Expression of proteins listed in Table 7 were determined in terms of fluorescence unit obtained by using target activation algorithm from High content imaging system from Cellomics. • Protein expression data expressed as fluorescent units from Table 7 were used to generate expression ratio by comparing drug treatments (individual or combination) against the normal control with no drug treatment. The ratio of expression which is considered as dys-regulation (1.5 fold above or below the range for up-regulation and down regulation respectively) is subtracted from the normal range (±1.5) and is used to measure the efficacy score.
Expression ratio=protein expression during drug treatment/protein expression under normal control.
Efficacy score =Cumulative score (expression ratio−±1.50) for all proteins.

[2] = test system: Panc-1 cells; test: Propidium iodide-based fluorescence cytotoxicity assay; type: cell-based; details: Homo sapiens, PANC-1; single agent, 0.1 nM
Experimental: The combination of P276-00 and Gemcitabine was screened for its synergistic effect in Panc-1 cells using propidium iodide based fluorescence cytotoxicity assay.
Test System: The Panc-1 cell line was procured from ATCC (American Tissue type Culture Collection), USA. Catalog number: CRL-1469 and the frozen vial was stored in liquid nitrogen container. Propidium iodide dye was procured from Sigma-Aldrich, USA. Catalog number: P-4170-100 mg and it was stored at 2-8° C.
Method: Panc-1 cells were seeded at a density of 2000 cells/well, in a 200 μL in tissue culture grade 96 well plate and allowed to recover for 24 hrs in a humidified 5%±0.2 CO2 incubator at 37° C.±0.5° C. After 24 hrs, 1 μL of 200 X (200 times higher than required concentration is denoted as 200×) compound (dissolved in neat DMSO), as per Table 1 or 2 was added to the wells. The final DMSO concentration was 0.5% in wells. The plate was incubated for 24 hrs in humidified 5%±0.2 CO2 incubator at 37±0.5° C.
After 24 hrs Minimum Essential Medium (MEM) from the Gemcitabine treated wells was removed and washed two times with fresh MEM and followed by addition of 200 μL of fresh MEM per well. 1 μL of 200× (200 times higher than required concentration is denoted as 200×) compound (dissolved in neat DMSO) was then added as per the Table 1 and 2 designs. The final DMSO concentration was 0.5% in wells which also served as the vehicle control for the study. After 72 hrs the plate was removed from CO2 incubator and spent MEM aspirated from the wells and supplemented with fresh MEM. This was followed by addition of 25 μL of propidium iodide (50 μg/ml in medium) per well. The same plate was frozen at −80° C. for 24 hrs and then thawed and allowed to come to room temperature. The fluorescence at a wavelength of 530 nm excitation and 620 nm emission was read.
The percent cytotoxicity was calculated using the following formula

[3] = test system: Panc-1 cells; test: Microarray gene expression analysis; type: cell-based, human; details: Panc-1, microarray
Description: The goal of the microarray analysis was to evaluate putative gene expression signatures associated with the in vitro synergistic effect of the combination therapy of Gemcitabine with […]-00 in Panc-1 cells. The time points (3 hrs, 6 hrs, 12 hrs) were chosen to establish early molecular changes in the transcription profile for probable biomarkers and mechanism of action for the combination therapy. Approximately 20 million cells were lysed in Trizol Reagent (Invitrogen Corp, USA) and passed through a 21-gauge needle for 5-10 times before RNA extraction was performed. Total RNA extraction was performed using the RNeasy Mini kit (Qiagen, USA) according to the manufacturer's protocol. The final total RNA was eluted in nuclease-free water and the concentration/purity was determined by Nanodrop spectrophotometer (Thermo Fisher Scientific, Delaware, USA). cDNA generation and labeling: 20 μg of total RNA was reverse transcribed using amino allyl dUTP and oligo dT, the resulting cDNA was indirectly labeled with Cy3/Cy5 dyes (GE Healthcare, USA) using a fluorescent labeling kit (Promega Biosciences, USA). The concentration and dye incorporation of the labeled products were determined by Nanodrop spectrophotometer (Thermo Fisher Scientific, Delaware, USA). Equal amounts of labeled cDNA were denatured at 95° C. for 5 mins, cooled and microfuged at 13200 rpm for 5 mins before hybridization. Array fabrication and hybridization: 70-mer transcript oligonucleotides representing 36,480 human genes was purchased from Operon Biotechnologies (Germany) and spotted onto aminosilane coated glass slides (ArrayIt, USA) by contact printing using a Omnigrid (OG100) spotter (Genomic Solutions Inc, USA). Post printing, the slides were cross-linked with UV light at […], vacuumed, sealed and stored in the dark. The slides were pre-processed for background reduction using Pronto (Promega Life sciences, USA) pre-hyb kit as per the manufacturer's instructions. Hybridization was carried out in the GeneTAC Hybstation (Genomic Solutions Inc, USA) for 18 hrs. The hybridization protocol is as follows: 6 hrs at 42° C. (with agitation), 6 hrs at 35° C. (with agitation), and 6 hrs at 30° C. (with agitation). Post hybridization, the arrays were washed according to the manufacturer's protocol. The slides were dried by centrifugation at 1600 rpm for 5 mins. Scanning and image analysis: Post drying, the slides were scanned in a laser scanner (Genomic Solutions, USA) for Cy3 and Cy5 detection. The PMT settings were adjusted using the auto-exposure feature of the scanner. The TIFF files thus generated were exported to GeneTAC Integrator software (Genomic Solutions, USA) for image analysis. The resultant CSV file containing the annotated genome and the corresponding ratios were further used for data analysis.

[4] = 6 hours post treatment, control 3
[5] = 36 hours post treatment, control 98

SMILES: Nc1ccn([C@@H]2O[C@H](CO)[C@@H](O)C2(F)F)c(=O)n1 [Gemcitabine, 2′, 2′-difluorodeoxycytidine]
- PTN protein expression ([1]; 6 hours post treatment, control 1): 6 fluorescence units
- GADD45-α protein expression [1, 4]: 4 fluorescence units
- ID1 protein expression [1, 4]: 7 fluorescence units
- P27 protein expression ([1]; 6 hours post treatment, control 6): 4 fluorescence units
- CDC25B protein expression ([1]; 6 hours post treatment, control 7): 8 fluorescence units
- CDKN2A protein expression ([1]; 6 hours post treatment, control 8): 60 fluorescence units
- CCND1 protein expression ([1]; 6 hours post treatment, control 74): 83 fluorescence units
- GAPDH protein expression ([1]; 6 hours post treatment, control 80): 84 fluorescence units
- CASP3 protein expression ([1]; 6 hours post treatment, control 147): 115 fluorescence units
- MMP-1 protein expression ([1]; 6 hours post treatment, control 501): 448 fluorescence units
- COX15 protein expression ([1]; 6 hours post treatment, control 627): 1100 fluorescence units
- COX2 protein expression ([1]; 6 hours post treatment, control 635): 462 fluorescence units
- BAX protein expression ([1]; 6 hours post treatment, control 819): 892 fluorescence units
- VEGF protein expression ([1]; 6 hours post treatment, control 829): 448 fluorescence units
- BCL2 protein expression ([1]; 6 hours post treatment, control 830): 630 fluorescence units
- pRB protein expression ([1]; 6 hours post treatment, control 1240): 1318 fluorescence units
- Efficacy score ([1]; 6 hours): 1.6
- GADD45-α protein expression ([1]; 16 hours post treatment, control 13): 70 fluorescence units
- CDC25B protein expression ([1]; 16 hours post treatment, control 54): 50 fluorescence units
- CDKN2A protein expression ([1]; 16 hours post treatment, control 64): 57 fluorescence units
- P27 protein expression ([1]; 16 hours post treatment, control 67): 72 fluorescence units
- PTN protein expression ([1]; 16 hours post treatment, control 76): 68 fluorescence units
- ID1 protein expression ([1]; 16 hours post treatment, control 77): 62 fluorescence units
- CCND1 protein expression ([1]; 16 hours post treatment, control 90): 66 fluorescence units
- GAPDH protein expression ([1]; 16 hours post treatment, control 100): 98 fluorescence units
- CASP3 protein expression ([1]; 16 hours post treatment, control 202): 570 fluorescence units
- VEGF protein expression ([1]; 16 hours post treatment, control 579): 604 fluorescence units
- BCL2 protein expression ([1]; 16 hours post treatment, control 644): 693 fluorescence units
- BAX protein expression ([1]; 16 hours post treatment, control 711): 926 fluorescence units
- COX15 protein expression ([1]; 16 hours post treatment, control 718): 1134 fluorescence units
- MMP-1 protein expression ([1]; 16 hours post treatment, control 929): 604 fluorescence units
- COX2 protein expression ([1]; 16 hours post treatment, control 1109): 1151 fluorescence units
- pRB protein expression ([1]; 16 hours post treatment, control 2583): 1931 fluorescence units
- Efficacy score ([1]; 16 hours): 7.6
- GADD45-α protein expression ([1]; 36 hours post treatment, control 19): 51 fluorescence units
- COX2 protein expression ([1]; 36 hours post treatment, control 86): 55 fluorescence units
- P27 protein expression ([1]; 36 hours post treatment, control 96): 67 fluorescence units
- CCND1 protein expression [1, 5]: 75 fluorescence units
- CDC25B protein expression [1, 5]: 29 fluorescence units
- GAPDH protein expression [1, 5]: 59 fluorescence units
- ID1 protein expression [1, 5]: 26 fluorescence units
- PTN protein expression ([1]; 36 hours post treatment, control 100): 94 fluorescence units
- CASP3 protein expression ([1]; 36 hours post treatment, control 265): 633 fluorescence units
- BAX protein expression ([1]; 36 hours post treatment, control 715): 1783 fluorescence units
- COX15 protein expression ([1]; 36 hours post treatment, control 722): 1990 fluorescence units
- VEGF protein expression ([1]; 36 hours post treatment, control 1093): 807 fluorescence units
- MMP-1 protein expression ([1]; 36 hours post treatment, control 1316): 807 fluorescence units
- BCL2 protein expression ([1]; 36 hours post treatment, control 1410): 698 fluorescence units
- CDKN2A protein expression ([1]; 36 hours post treatment, control 1441): 1483 fluorescence units
- pRB protein expression ([1]; 36 hours post treatment, control 2840): 2188 fluorescence units
- Efficacy score ([1]; 36 hours): 7.4
- cytotoxicity at 0.0001 µM [2]: 10%
- CDK8 gene expression value (log value of intensities) [3]: −0.03
- DICER1 gene expression value (log value of intensities) [3]: −0.16
- DLG5 gene expression value (log value of intensities) [3]: −0.19
- DNAI1 gene expression value (log value of intensities) [3]: 0.03
- FA38A gene expression value (log value of intensities) [3]: −0.70
- FGF5 gene expression value (log value of intensities) [3]: 0.28
- HELLS gene expression value (log value of intensities) [3]: 0.40
- HIST1H2BO gene expression value (log value of intensities) [3]: −0.71
- ID1 gene expression value (log value of intensities) [3]: −0.60
- MKKS gene expression value (log value of intensities) [3]: −0.02
- PPIL4 gene expression value (log value of intensities) [3]: 0.36
- RRM2 gene expression value (log value of intensities) [3]: 0.69
- SLC19A2 gene expression value (log value of intensities) [3]: 0.37
- SNX7 gene expression value (log value of intensities) [3]: 0.27
- TMPRSS3 gene expression value (log value of intensities) [3]: 0.85
